Tested on: miRNAs in diaphragm muscle of mdx mice
Experiment: TaqMan low-density array (TLDA) miRNA profiling of diaphragm, discovery set (prophylactic mdx trial)
Format: in vivo, mouse
Conditions: mdx diaphragm, vs untreated mdx; Pred 5 mg/kg, Vam 15 mg/kg
Text: Archival muscle samples (diaphragm) from two separate preclinical studies were obtained, with each trial showing a significant benefit from both prednisolone and vamorolone drug treatments (23). Prednisolone was used because it is the active form of prednisone, the current DMD standard of care. The first, “discovery set” of diaphragm muscles was from a prophylactic trial design where 2-week old (postnatal day 15) mdx or wild type control mice received oral dosing for 6 weeks with vehicle (cherry syrup), prednisolone (5 mg/kg), or vamorolone (15 mg/kg) as previously reported (23). The second, “validation set” of diaphragm muscles was from an extended trial in older mice where mdx or wild type mice were subjected to treadmill running to unmask mild phenotypes. Mice in this validation set were treated with either vehicle, prednisolone (5 mg/kg) or vamorolone (45 mg/kg) for four months beginning at two months of age (23). At the endpoint of each trial, diaphragm muscles were harvested and frozen in liquid nitrogen-cooled isopentane.
We extracted total RNA from 5 diaphragm muscles per treatment group in the discovery set of samples from 8-week old mice. RNA was extracted using a modified TRIzol protocol with isopropanol precipitation at −20° C. overnight. This RNA was reverse transcribed to cDNA using a High Capacity cDNA Reverse Transcription Kit with RNase Inhibitor (ThermoFisher; Carlsbad, Calif.), with miRNA-specific Megaplex RT Primers, Rodent Pools Set version 3.0 (ThermoFisher; Carlsbad, Calif.). Levels of each of the miRNAs were profiled in the discovery set using TAQMAN Array Rodent MiRNA A+B Cards Set v3.0 (ThermoFisher; Carlsbad, Calif.).
In the discovery set experiments, levels of each miRNA were quantified in TaqMan low-density arrays using ThermoFisher Cloud software with the Relative Quantification Application (ThermoFisher; Carlsbad, Calif.) tool. Data was analyzed by ANOVA with post-hoc comparison of each group to the mdx vehicle-treated group. […] A P-value of P≤0.05 was set as the significance threshold, without adjustment for multiple comparisons. To reduce false-positive discovery in this setting, an evidence-based approach was used to identify efficacy associated miRNAs where 1) results from the multiple groups were cross-referenced, and 2) all candidate miRNAs identified in this discovery set were then assayed in a separate validation set of mice. For the validation set experiments, levels of each individual miRNA were assayed in samples from a second, independent preclinical trial in adult mdx mice. Data from individual TaqMan Assays was quantified using QuantStudio Real-Time PCR version 1.3 software (Applied Biosystems; Foster City, Calif.). The levels of all miRNAs were normalized to the geometric mean of multiple control genes (60, 70). Comparison of groups was made by ANOVA with Holm-Sidak post-hoc test comparing each group to mdx vehicle.
To visualize behavior of miRNAs within individual mice for each group, heat map images were generated. Heat maps were generated using Rq values of TLDA array data exported from the Relative Quantification Application of the ThermoFisher Cloud software (ThermoFisher; Carlsbad, Calif.) tool. Heat maps of miRNA expression were produced using Hierarchical Clustering Explorer Version 3.5 (at www.cs.umd.edu/hcil/multi-cluster/) produced by the Human Computer Interaction Laboratory (University of Maryland; College Park, Md.).
To examine miRNA expression TaqMan low density qPCR array cards were used to profile approximately 750 miRNAs within diaphragm muscle from a discovery set of mice. Samples for this experiment came from a trial that utilized a prophylactic approach (23). Briefly, mdx mice undergo a stage of peak severity characterized by widespread inflammation and necrosis from approximately 3-8 weeks of age, followed by a recovery stage where mice show milder phenotypes (25). […]

C[C@@H]1C[C@H]2[C@@H]3CCC4=CC(=O)C=C[C@]4(C)C3=CC[C@]2(C)[C@@]1(O)C(=O)CO [vamorolone]
Rq mmu-miR-215-001200: 0.495 | Rq mmu-miR-218-000521: 0.759 | Rq mmu-miR-221-000524: 0.674 | Rq mmu-miR-222-002276: 0.733 | Rq mmu-miR-223-002295: 0.78 | Rq mmu-miR-296-5p-000527: 0.882 | Rq mmu-miR-301a-000528: 0.77 | Rq mmu-miR-301b-002600: 0.917 | Rq mmu-miR-322-001076: 0.785 | Rq mmu-miR-324-3p-002509: 0.748 | Rq mmu-miR-324-5p-000539: 0.946 | Rq mmu-miR-328-000543: 0.858 | Rq mmu-miR-335-3p-002185: 1.249 | Rq mmu-miR-335-5p-000546: 0.76 | Rq mmu-miR-337-3p-002532: 1.078 | Rq mmu-miR-338-3p-002252: 0.689 | Rq mmu-miR-339-5p-002257: 0.929 | Rq mmu-miR-340-3p-002259: 0.75 | Rq mmu-miR-340-5p-002258: 0.726 | Rq mmu-miR-342-3p-002260: 0.677 | Rq mmu-miR-342-5p-002527: 0.644 | Rq mmu-miR-345-5p-002528: 0.808 | Rq mmu-miR-350-002530: 0.797 | Rq mmu-miR-362-3p-002616: 0.902 | Rq mmu-miR-362-5p-002614: 1.469 | Rq mmu-miR-369-3p-000557: 0.963 | Rq mmu-miR-369-5p-001021: 1.023 | Rq mmu-miR-370-002275: 1.146 | Rq mmu-miR-376a#-002482: 0.985 | Rq mmu-miR-376a-001069: 0.991 | Rq mmu-miR-376b#-002451: 0.717 | Rq mmu-miR-376b-002452: 1.153 | Rq mmu-miR-376c-002450: 0.931 | Rq mmu-miR-379-001138: 0.987 | Rq mmu-miR-380-5p-002601: 1.243 | Rq mmu-miR-381-000571: 1.288 | Rq mmu-miR-382-000572: 1.081 | Rq mmu-miR-383-001767: 0.272 | Rq mmu-miR-384-5p-002602: 0.727 | Rq mmu-miR-409-3p-002332: 1.266 | Rq mmu-miR-410-001274: 1.158 | Rq mmu-miR-411-001610: 1.083 | Rq mmu-miR-431-001979: 1.358 | Rq mmu-miR-433-001028: 1.407 | Rq mmu-miR-434-5p-002581: 1.208 | Rq mmu-miR-450a-5p-002303: 0.862 | Rq mmu-miR-455-002455: 0.607 | Rq mmu-miR-467F-002886: 0.581 | Rq mmu-miR-467a-002587: 0.763 | Rq mmu-miR-467c-002517: 0.844 | Rq mmu-miR-483#-002560: 1.386 | Rq mmu-miR-486-001278: 0.988 | Rq mmu-miR-487b-001285: 1.133 | Rq mmu-miR-489-001302: 0.942 | Rq mmu-miR-491-001630: 0.842 | Rq mmu-miR-493-002519: 1.057 | Rq mmu-miR-494-002365: 0.988 | Rq mmu-miR-495-001663: 0.897 | Rq mmu-miR-497-001346: 0.652 | Rq mmu-miR-500-002606: 0.878 | Rq mmu-miR-501-3p-001651: 1.158 | Rq mmu-miR-503-002456: 1.115 | Rq mmu-miR-511-002549: 0.477 | Rq mmu-miR-532-3p-002355: 1.069 | Rq mmu-miR-532-5p-001518: 1.043 | Rq mmu-miR-540-3p-001310: 0.746 | Rq mmu-miR-541-002562: 1.043 | Rq mmu-miR-542-3p-001284: 0.82 | Rq mmu-miR-542-5p-002563: 1.044 | Rq mmu-miR-543-001298: 1.176 | Rq mmu-miR-543-002376: 0.918 | Rq mmu-miR-544-002550: 0.952 | Rq mmu-miR-574-3p-002349: 0.692 | Rq mmu-miR-652-002352: 0.636 | Rq mmu-miR-665-002607: 1.203 | Rq mmu-miR-669a-001683: 0.551 | Rq mmu-miR-673-3p-002449: 1.148 | Rq mmu-miR-673-001954: 1.475 | Rq mmu-miR-674#-001956: 0.765 | Rq mmu-miR-674-002021: 0.892 | Rq mmu-miR-675-3p-001941: 1.14 | Rq mmu-miR-682-001666: 0.675 | Rq mmu-miR-690-001677: 0.861 | Rq mmu-miR-706-001641: 0.664 | Rq mmu-miR-708-002341: 0.51 | Rq mmu-miR-720-001629: 0.957 | Rq mmu-miR-802-002029: 0.126 | Rq mmu-miR-805-002045: 1.128 | Rq mmu-miR-1274a-121150_mat: 1.244 | Rq mmu-miR-1941-3p-121130_mat: 1.459 | Rq mmu-miR-1943-121174_mat: 1.268 | Rq mmu-miR-1944-121189_mat: 1.023 | Rq mmu-miR-2146-241082_mat: 0.413 | Rq mmu-miR-30d-000420: 0.829 | Rq rno-miR-1-002064: 0.956 | Rq rno-miR-7#-001338: 0.799 | Rq rno-miR-7a#-002062: 0.887 | Rq rno-miR-20b-001326: 0.711 | Rq rno-miR-29c#-001818: 0.93 | Rq rno-miR-204#-002076: 0.813 | Rq rno-miR-224-000599: 0.837 | Rq rno-miR-345-3p-002061: 0.999 | Rq rno-miR-351-002063: 1.376 | Rq rno-miR-379#-002081: 1.014 | Rq rno-miR-381-001322: 1.013 | Rq rno-miR-489-001353: 0.844 | Rq rno-miR-664-001323: 0.771
